{"source": "the supplement of paper PMC13380429", "key": {"Caco-2 [1]": {"system": "Caco-2", "experiment": "relative viability EC50 (midpoint between 100% and the lowest measured viability); higher = less toxic", "conditions": "72 h"}, "Vero E6 [2]": {"system": "Vero E6", "experiment": "relative viability EC50 (midpoint between 100% and the lowest measured viability); higher = less toxic", "conditions": "72 h"}, "Calu-3 [3]": {"system": "Calu-3", "experiment": "relative viability EC50 (midpoint between 100% and the lowest measured viability); higher = less toxic", "conditions": "72 h"}, "HepG2 [4]": {"system": "HepG2", "experiment": "relative viability EC50 (midpoint between 100% and the lowest measured viability); higher = less toxic", "conditions": "72 h"}, "A549-ACE2 [5]": {"system": "A549-ACE2", "experiment": "drug-induced phospholipidosis relative to tamoxifen; higher = more phospholipidosis"}, "[6]": {"system": "A549-ACE2 infected with SARS-CoV-2", "experiment": "morphology score (similarity to uninfected cells); higher = more like uninfected cells", "conditions": "24 h"}, "Caco-2 [7]": {"system": "Caco-2", "experiment": "drug sensitivity score (DSS) for viability; higher = more toxic; extreme values may be limits of the assay", "conditions": "72 h"}, "Vero E6 [8]": {"system": "Vero E6", "experiment": "drug sensitivity score (DSS) for viability; higher = more toxic; extreme values may be limits of the assay", "conditions": "72 h"}, "Calu-3 [9]": {"system": "Calu-3", "experiment": "drug sensitivity score (DSS) for viability; higher = more toxic; extreme values may be limits of the assay", "conditions": "72 h"}, "HepG2 [10]": {"system": "HepG2", "experiment": "drug sensitivity score (DSS) for viability; higher = more toxic; extreme values may be limits of the assay", "conditions": "72 h"}, "U2OS [11]": {"system": "U2OS", "experiment": "drug sensitivity score (DSS) for viability; higher = more toxic; extreme values may be limits of the assay", "conditions": "72 h"}, "[12]": {"system": "A549-ACE2 infected with SARS-CoV-2", "experiment": "cell count relative to DMSO; higher = less toxic", "conditions": "24 h"}, "A549-ACE2 [13]": {"system": "A549-ACE2", "experiment": "phospholipidosis EC50; higher = less potent phospholipidosis inducer"}, "Caco-2 [14]": {"system": "Caco-2", "experiment": "cell viability relative to DMSO; higher = less toxic", "conditions": "72 h"}, "Vero E6 [15]": {"system": "Vero E6", "experiment": "cell viability relative to DMSO; higher = less toxic", "conditions": "72 h"}, "Calu-3 [16]": {"system": "Calu-3", "experiment": "cell viability relative to DMSO; higher = less toxic", "conditions": "72 h"}, "HepG2 [17]": {"system": "HepG2", "experiment": "cell viability relative to DMSO; higher = less toxic", "conditions": "72 h"}, "U2OS [18]": {"system": "U2OS", "experiment": "cell viability relative to DMSO; higher = less toxic", "conditions": "72 h"}, "[19]": {"system": "A549-ACE2 infected with SARS-CoV-2", "experiment": "SARS-CoV-2 infection rate relative to DMSO; higher = more infection", "conditions": "24 h"}}, "data": [{"smiles": "CC(C)c1ccc(C(=O)c2cccs2)c(SCCCCCCCCN(C)C)n1", "values": [{"measurement": "relative viability EC50", "setting": "Caco-2 [1]", "result": 2.32, "unit": "µM"}, {"measurement": "relative viability EC50", "setting": "Vero E6 [2]", "result": "> 10", "unit": "µM"}, {"measurement": "relative viability EC50", "setting": "Calu-3 [3]", "result": 3.55, "unit": "µM"}, {"measurement": "relative viability EC50", "setting": "HepG2 [4]", "result": 3.39, "unit": "µM"}, {"measurement": "drug-induced phospholipidosis", "setting": "A549-ACE2 [5]; 0.3 µM, 24 h", "result": 6.35, "unit": "%"}, {"measurement": "drug-induced phospholipidosis", "setting": "A549-ACE2 [5]; 0.3 µM, 48 h", "result": 4.72, "unit": "%"}, {"measurement": "drug-induced phospholipidosis", "setting": "A549-ACE2 [5]; 0.3 µM, 72 h", "result": 0.841, "unit": "%"}, {"measurement": "drug-induced phospholipidosis", "setting": "A549-ACE2 [5]; 0.833333 µM, 24 h", "result": 10.2, "unit": "%"}, {"measurement": "drug-induced phospholipidosis", "setting": "A549-ACE2 [5]; 0.833333 µM, 48 h", "result": 6.5, "unit": "%"}, {"measurement": "drug-induced phospholipidosis", "setting": "A549-ACE2 [5]; 0.833333 µM, 72 h", "result": 8.09, "unit": "%"}, {"measurement": "drug-induced phospholipidosis", "setting": "A549-ACE2 [5]; 3.33333 µM, 24 h", "result": 76.1, "unit": "%"}, {"measurement": "drug-induced phospholipidosis", "setting": "A549-ACE2 [5]; 3.33333 µM, 48 h", "result": 79.5, "unit": "%"}, {"measurement": "drug-induced phospholipidosis", "setting": "A549-ACE2 [5]; 3.33333 µM, 72 h", "result": 57.5, "unit": "%"}, {"measurement": "drug-induced phospholipidosis", "setting": "A549-ACE2 [5]; 6.66667 µM, 24 h", "result": 105, "unit": "%"}, {"measurement": "drug-induced phospholipidosis", "setting": "A549-ACE2 [5]; 6.66667 µM, 48 h", "result": 112, "unit": "%"}, {"measurement": "drug-induced phospholipidosis", "setting": "A549-ACE2 [5]; 6.66667 µM, 72 h", "result": 114, "unit": "%"}, {"measurement": "drug-induced phospholipidosis", "setting": "A549-ACE2 [5]; 10 µM, 24 h", "result": 129, "unit": "%"}, {"measurement": "drug-induced phospholipidosis", "setting": "A549-ACE2 [5]; 10 µM, 48 h", "result": 127, "unit": "%"}, {"measurement": "drug-induced phospholipidosis", "setting": "A549-ACE2 [5]; 10 µM, 72 h", "result": 131, "unit": "%"}, {"measurement": "drug-induced phospholipidosis", "setting": "A549-ACE2 [5]; 30 µM, 24 h", "result": 33.4, "unit": "%"}, {"measurement": "morphology score", "setting": "[6]; 0.1 µM", "result": -0.04}, {"measurement": "morphology score", "setting": "[6]; 0.3 µM", "result": 0.17}, {"measurement": "morphology score", "setting": "[6]; 1 µM", "result": 0.57}, {"measurement": "morphology score", "setting": "[6]; 3 µM", "result": 0.88}, {"measurement": "drug sensitivity score", "setting": "Caco-2 [7]", "result": 3.7}, {"measurement": "drug sensitivity score", "setting": "Vero E6 [8]", "result": 1.4}, {"measurement": "drug sensitivity score", "setting": "Calu-3 [9]", "result": 3.6}, {"measurement": "drug sensitivity score", "setting": "HepG2 [10]", "result": 3.6}, {"measurement": "drug sensitivity score", "setting": "U2OS [11]", "result": 1.3}, {"measurement": "cell count", "setting": "[12]; 0.1 µM", "result": 98, "unit": "%"}, {"measurement": "cell count", "setting": "[12]; 0.3 µM", "result": 101, "unit": "%"}, {"measurement": "cell count", "setting": "[12]; 1 µM", "result": 111, "unit": "%"}, {"measurement": "cell count", "setting": "[12]; 3 µM", "result": 123, "unit": "%"}, {"measurement": "phospholipidosis EC50", "setting": "A549-ACE2 [13]; 24 h", "result": 2.88, "unit": "µM"}, {"measurement": "phospholipidosis EC50", "setting": "A549-ACE2 [13]; 48 h", "result": 2.9, "unit": "µM"}, {"measurement": "phospholipidosis EC50", "setting": "A549-ACE2 [13]; 72 h", "result": 4.11, "unit": "µM"}, {"measurement": "cell viability", "setting": "Caco-2 [14]; 1 nM", "result": 106, "unit": "%"}, {"measurement": "cell viability", "setting": "Caco-2 [14]; 10 nM", "result": 91.6, "unit": "%"}, {"measurement": "cell viability", "setting": "Caco-2 [14]; 100 nM", "result": 97.6, "unit": "%"}, {"measurement": "cell viability", "setting": "Caco-2 [14]; 1000 nM", "result": 94.6, "unit": "%"}, {"measurement": "cell viability", "setting": "Caco-2 [14]; 10000 nM", "result": 47.3, "unit": "%"}, {"measurement": "cell viability", "setting": "Vero E6 [15]; 1 nM", "result": 100, "unit": "%"}, {"measurement": "cell viability", "setting": "Vero E6 [15]; 10 nM", "result": 99.8, "unit": "%"}, {"measurement": "cell viability", "setting": "Vero E6 [15]; 100 nM", "result": 101, "unit": "%"}, {"measurement": "cell viability", "setting": "Vero E6 [15]; 1000 nM", "result": 94.6, "unit": "%"}, {"measurement": "cell viability", "setting": "Vero E6 [15]; 10000 nM", "result": 78.4, "unit": "%"}, {"measurement": "cell viability", "setting": "Calu-3 [16]; 1 nM", "result": 101, "unit": "%"}, {"measurement": "cell viability", "setting": "Calu-3 [16]; 10 nM", "result": 120, "unit": "%"}, {"measurement": "cell viability", "setting": "Calu-3 [16]; 100 nM", "result": 97.4, "unit": "%"}, {"measurement": "cell viability", "setting": "Calu-3 [16]; 1000 nM", "result": 106, "unit": "%"}, {"measurement": "cell viability", "setting": "Calu-3 [16]; 10000 nM", "result": 27.9, "unit": "%"}, {"measurement": "cell viability", "setting": "HepG2 [17]; 1 nM", "result": 97.9, "unit": "%"}, {"measurement": "cell viability", "setting": "HepG2 [17]; 10 nM", "result": 94.6, "unit": "%"}, {"measurement": "cell viability", "setting": "HepG2 [17]; 100 nM", "result": 109, "unit": "%"}, {"measurement": "cell viability", "setting": "HepG2 [17]; 1000 nM", "result": 103, "unit": "%"}, {"measurement": "cell viability", "setting": "HepG2 [17]; 10000 nM", "result": 29.4, "unit": "%"}, {"measurement": "cell viability", "setting": "U2OS [18]; 1 nM", "result": 99.4, "unit": "%"}, {"measurement": "cell viability", "setting": "U2OS [18]; 10 nM", "result": 95.9, "unit": "%"}, {"measurement": "cell viability", "setting": "U2OS [18]; 100 nM", "result": 101, "unit": "%"}, {"measurement": "cell viability", "setting": "U2OS [18]; 1000 nM", "result": 98.9, "unit": "%"}, {"measurement": "cell viability", "setting": "U2OS [18]; 10000 nM", "result": 71.6, "unit": "%"}, {"measurement": "SARS-CoV-2 infection rate", "setting": "[19]; 0.1 µM", "result": 99, "unit": "%"}, {"measurement": "SARS-CoV-2 infection rate", "setting": "[19]; 0.3 µM", "result": 95, "unit": "%"}, {"measurement": "SARS-CoV-2 infection rate", "setting": "[19]; 1 µM", "result": 74, "unit": "%"}, {"measurement": "SARS-CoV-2 infection rate", "setting": "[19]; 3 µM", "result": 23, "unit": "%"}]}]}
